Results taken from US20220160812A1, “A PHARMACEUTICALLY ACTIVE SUBSTANCE” (Cytopharma GmbH, priority 2019, published 2022).

What was measured:
[1] = tested on: BxPC-3 human pancreatic cancer cells; assay: subG1 cell cycle FACS apoptosis assay, BxPC-3 cells; assay type: cell-based; conditions: BxPC-3, Protocol A, about 24 hours, FIG. 10
Procedure: (§1) To transfer adherent cells (A375 and BxPC-3 cells) after culture, cells are washed twice with PBS. To detach the cells, the enzyme biotase is used according to the manufacturer's instructions. For this purpose, after washing with PBS, the cells are mixed with biotase (5 ml of biotase solution per 75 cm^2 surface of the cell culture bottles) and incubated for 5 min at 37 degrees Celsius, and the biotase is separated by centrifugation. Cells cultivated in suspension (MEC-1 and lymphocytes) were transferred by dilution. The cells are suspended in culture medium and counted, each time 1.5×10^5 cells/cm^2 are seeded in 48-well plates and cultured for between 1.5 and 24 hours at 37 degrees Celsius, 5% CO2. Peptides are pre-diluted from stock solution with culture medium and 200 μl of peptide solution added so that final concentrations of 30 to 500 μM peptide are present in at most 1% (v/v) DMSO. As control solutions, culture medium without peptide (DMSO-containing) in culture medium or etoposide solution is added. After incubating the cells for several hours, the cell supernatant is transferred to a FACS tube for each batch and, after washing the cells with PBS, the wash solution is added. Then the cells are incubated with 200 μl of biotase solution for 10 min, 37° C., the cells with the biotase are also transferred to the FACS tube and the cells are collected by centrifugation for 5 min. The cell pellet is suspended in 500 μl of serum-free culture medium, then 1.5 ml of cold 80% ethanol (ethanol/PBS-80/20, v/v, stored at −20° C.) is added, the FACS tubes sealed and stored at −20 degrees Celsius for 15 to 18 h. Thereafter, the cells are centrifuged for 5 minutes at 120 g, suspended after removal of the supernatant in 2 ml PBS and incubated at 37 degrees Celsius for 30 minutes. After re-centrifugation, the cells are suspended in 0.5 ml DAPI solution and incubated for 15 min at 20 degrees Celsius in the dark. Thereafter, the cells are stored dark for a maximum of four hours in an ice bath, followed by the FACS analysis.
The adherent cells (A375 and BxPC-3 cells and MDA-MB-231, respectively) are seeded 24 hours before induction in 6-well plates in culture medium. For this, the cells are washed with PBS, then incubated with trypsin/EDTA solution at 37 degrees Celsius and suspended in culture medium. The 6-well plates are loaded with 1×10^5 cells/cm^2 in culture medium and the cells incubated for 24 hours until induction with the peptides in the incubator. For induction, the peptides are diluted in fresh culture medium. As control solutions, culture medium without peptide (DMSO-containing) in culture medium or etoposide solution is added. The cells are washed with PBS. Thereafter the peptide solution in culture medium is added to the cells. After incubation in the incubator (37° C., 5% CO2) between 1.5 and 24 hours, the cell supernatant is transferred to 15 ml centrifuge tubes, the cells are washed with 0.75 ml PBS and then with 0.5 ml versene solution. Both washings are combined with the cell supernatant. The cells are then added with 0.5 ml of trypsin/EDTA solution and incubated at about 37° C. for at most 10 minutes until the cells detached. The cell suspension is combined with cell supernatant and washings and centrifuged at about 130 g for about 10 minutes. After removing the supernatant, the cells are suspended in 400 μl of cell culture medium (without serum) and mixed with 1.2 ml of 80% ethanol/20% PBS (v/v) and incubated for 1 to 7 days at −20° C. For analysis, the cells are centrifuged at 130 g for 10 min, suspended in 2 ml PBS, and centrifuged again for 5 min. The cells are suspended in 700 μl PI buffer and incubated for 10 min at 37° C. in the dark. Subsequently, the cells are stored dark for a maximum of four hours in an ice bath, then the FACS analysis is performed. […]

[2] = tested on: A375 melanoma cells; assay: subG1 cell cycle FACS apoptosis assay, A375 melanoma cells; assay type: cell-based, human; conditions: A375, Protocol A
Procedure: as §1
The adherent cells (A375 and BxPC-3 cells and MDA-MB-231, respectively) are seeded 24 hours before induction in 6-well plates in culture medium. For this, the cells are washed with PBS, then incubated with trypsin/EDTA solution at 37 degrees Celsius and suspended in culture medium. The 6-well plates are loaded with 1×10^5 cells/cm^2 in culture medium and the cells incubated for 24 hours until induction with the peptides in the incubator. For induction, the peptides are diluted in fresh culture medium. As control solutions, culture medium without peptide (DMSO-containing) in culture medium or etoposide solution is added. The cells are washed with PBS. Thereafter the peptide solution in culture medium is added to the cells. After incubation in the incubator (37° C., 5% CO2) between 1.5 and 24 hours, the cell supernatant is transferred to 15 ml centrifuge tubes, the cells are washed with 0.75 ml PBS and then with 0.5 ml versene solution. Both washings are combined with the cell supernatant. The cells are then added with 0.5 ml of trypsin/EDTA solution and incubated at about 37° C. for at most 10 minutes until the cells detached. The cell suspension is combined with cell supernatant and washings and centrifuged at about 130 g for about 10 minutes. After removing the supernatant, the cells are suspended in 400 μl of cell culture medium (without serum) and mixed with 1.2 ml of 80% ethanol/20% PBS (v/v) and incubated for 1 to 7 days at −20° C. For analysis, the cells are centrifuged at 130 g for 10 min, suspended in 2 ml PBS, and centrifuged again for 5 min. The cells are suspended in 700 μl PI buffer and incubated for 10 min at 37° C. in the dark. Subsequently, the cells are stored dark for a maximum of four hours in an ice bath, then the FACS analysis is performed.
The proportion of cells which have died was determined by two methods, both rely on the analysis of cells by flow cytometry, often called FACS analysis. […]

Substance	apoptosis efficiency (subG1), comparison in words ([1]; 50 μM)	apoptosis efficiency (subG1), comparison in words ([1]; 100 μM)	apoptosis efficiency (subG1), comparison in words ([2]; 200 μM, about 24 hours, FIG. 4)	apoptosis efficiency (subG1), comparison in words ([1]; 200 μM)	apoptosis efficiency (subG1) in view of Peptide SEQ C1 ([1]; any concentration (50, 100, 200 μM))	apoptosis level (subG1), comparison in words ([2]; 100 μM, FIG. 6)	apoptosis efficiency (subG1) in view of Peptide SEQ C1 ([2]; 100 μM, about 24 hours, FIG. 4)	apoptosis level (subG1) ([2]; 200 μM and above, incubation about 3 hours, FIG. 6)	apoptosis efficiency (subG1) in view of Peptide SEQ C1 ([2]; 200 μM, about 24 hours, FIG. 4)	apoptosis efficiency (subG1), comparison in words ([2]; 200 μM, incubation 1.5 h, 3 h and 6 h, FIG. 6)	apoptosis efficiency (subG1), comparison in words ([2]; 300 μM, all incubation times (1.5, 3, 6, 24 h), FIG. 6)	apoptosis efficiency (subG1), comparison in words ([2]; any concentration (50, 100, 200 μM), about 24 hours, FIG. 4)	apoptosis efficiency (subG1), comparison in words ([2]; 200 μM, incubation 24 h, FIG. 6)
k-s-q-t-v-k-k-w-m-v-v-y-f-r-k [SEQID No 29]	slight improvement over peptides SEQID NO 27 and SEQID NO 37	higher efficiency at 100 μM in view of Peptides SEQID NO 27, SEQID NO 37 and SEQID NO 36	higher efficiency at 200 μM in view of Peptide SEQID No 37	–	–	–	–	–	–	–	–	–	–
k-s-q-t-v-q-k-w-m-v-v-y-f-r-k [SEQID No 36]	slight improvement over peptides SEQID NO 27 and SEQID NO 37	–	–	clear improvement over peptides SEQID NO 27 and SEQID NO 29	at least fourfold	slightly improved apoptosis level in view of peptide SEQID NO 27	at least fivefold	high apoptosis level	at least tenfold	improvement over Peptides SEQID NO 37 and SEQID NO 27	improvement with regard to all incubation times over Peptides SEQID NO 37 and SEQID NO 27	clear improvement over Peptides SEQID NO 37 and SEQID NO 29 at any concentration	–
s-q-t-v-q-k-w-m-v-v-y-f-r-k [SEQID No 37]	–	–	–	clear improvement over peptides SEQID NO 27 and SEQID NO 29	–	slightly improved apoptosis level in view of peptide SEQID NO 27	–	–	–	–	–	–	best results
